In ChEMBL document CHEMBL1201862, “PubChem BioAssay data set” (2004):
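96-well plates; 48 h exposure; 5 concentrations. Endpoints by linear interpolation between flanking doses. Not reached: highest tested concentration assigned. Abbreviation: GI50, concentration required for 50% inhibition of growth.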 Activity calls are given as the source filed them. No stated cut-off is given here; in the data, active = GI50 up to about 1.1 µM and inactive = higher.

Legend:
Experiment in all cases: NCI-60 cell line screen, 48 h
OVCAR-5 = tested on: OVCAR-5
HL-60 = tested on: HL-60
UO-31 = tested on: UO-31
SK-MEL-2 = tested on: SK-MEL-2
SN12C = tested on: SN12C
RXF 393 = tested on: RXF 393
HCT-15 = tested on: HCT-15
IGROV-1 = tested on: IGROV-1
K562 = tested on: K562
RPMI-8226 = tested on: RPMI-8226
COLO 205 = tested on: COLO 205
SW-620 = tested on: SW-620
NCI-H226 = tested on: NCI-H226
DMS-114 = tested on: DMS-114
M14 = tested on: M14
HOP-92 = tested on: HOP-92
KM-20L2 = tested on: KM-20L2
SF-268 = tested on: SF-268
MOLT-4 = tested on: MOLT-4
LXFL 529 = tested on: LXFL 529
SK-OV-3 = tested on: SK-OV-3
SF-539 = tested on: SF-539
SNB-19 = tested on: SNB-19
786-0 = tested on: 786-0
SK-MEL-28 = tested on: SK-MEL-28
U-251 = tested on: U-251
ACHN = tested on: ACHN
SNB-78 = tested on: SNB-78
Malme-3M = tested on: Malme-3M
HCT-116 = tested on: HCT-116
NCI-H23 = tested on: NCI-H23
A498 = tested on: A498
HOP-62 = tested on: HOP-62
SK-MEL-5 = tested on: SK-MEL-5
DLD-1 = tested on: DLD-1
HCC 2998 = tested on: HCC 2998
CCRF-CEM = tested on: CCRF-CEM
LOX IMVI = tested on: LOX IMVI
OVCAR-4 = tested on: OVCAR-4
A549 = tested on: A549
OVCAR-8 = tested on: OVCAR-8
SNB-75 = tested on: SNB-75
UACC-62 = tested on: UACC-62
NCI-H522 = tested on: NCI-H522
EKVX = tested on: EKVX
CAKI-1 = tested on: CAKI-1
TK-10 = tested on: TK-10
NCI-H460 = tested on: NCI-H460
M19-MEL = tested on: M19-MEL
KM12 = tested on: KM12
HT-29 = tested on: HT-29
DMS-273 = tested on: DMS-273
UACC-257 = tested on: UACC-257
OVCAR-3 = tested on: OVCAR-3

Measured: GI50

CC(=O)OC1CC2C(C)(C)C(=O)C=C[C@]2(C)C2CCC3(C)C(c4ccoc4)C(=O)[C@H]4O[C@]43[C@]12C (stereo partly drawn)
inactive: OVCAR-5 26.7 µM | HL-60 20.2 µM | UO-31 18.7 µM | SK-MEL-2 20.8 µM | SN12C 23.3 µM | RXF 393 19.1 µM | IGROV-1 25.5 µM | K562 15.6 µM | RPMI-8226 15.9 µM | COLO 205 > 100 µM | SW-620 28.5 µM | NCI-H226 23.7 µM | DMS-114 > 100 µM | M14 26.7 µM | HOP-92 12.6 µM | KM-20L2 > 10 µM | SF-268 38.9 µM | MOLT-4 16 µM | LXFL 529 33.7 µM | SK-OV-3 > 100 µM | SF-539 20 µM | SNB-19 23.3 µM | 786-0 18.1 µM | SK-MEL-28 15.5 µM | U-251 18.6 µM | ACHN 17.9 µM | SNB-78 57.8 µM | Malme-3M 16.1 µM | HCT-116 15.4 µM | NCI-H23 21.5 µM | A498 20.3 µM | HOP-62 22.6 µM | SK-MEL-5 17.7 µM | DLD-1 13.6 µM | HCC 2998 17.1 µM | CCRF-CEM 15.5 µM | LOX IMVI 20 µM | OVCAR-4 22.3 µM | A549 > 10 µM | OVCAR-8 19.4 µM | SNB-75 29.8 µM | UACC-62 18 µM | NCI-H522 16.4 µM | EKVX 31.3 µM | CAKI-1 20.3 µM | TK-10 31.6 µM | NCI-H460 17.4 µM | M19-MEL 20.4 µM
15.1 µM: HCT-15

c1ccc(-c2nnc(-c3nsc4ccccc34)o2)cc1
inactive: OVCAR-5 > 100 µM | HL-60 > 100 µM | UO-31 19.5 µM | SK-MEL-2 > 100 µM | SN12C > 100 µM | KM12 > 100 µM | RXF 393 > 100 µM | IGROV-1 60.4 µM | K562 > 100 µM | RPMI-8226 > 100 µM | COLO 205 > 100 µM | SW-620 > 100 µM | DMS-114 > 100 µM | M14 > 100 µM | HOP-92 18.4 µM | KM-20L2 > 100 µM | SF-268 > 100 µM | MOLT-4 > 100 µM | LXFL 529 > 100 µM | HT-29 > 100 µM | SF-539 > 100 µM | SNB-19 > 100 µM | SK-MEL-28 > 100 µM | U-251 > 100 µM | SNB-78 98.9 µM | HCT-116 > 100 µM | NCI-H23 > 100 µM | HOP-62 > 100 µM | DMS-273 > 100 µM | SK-MEL-5 > 100 µM | HCC 2998 > 100 µM | CCRF-CEM > 100 µM | LOX IMVI > 100 µM | UACC-257 > 100 µM | OVCAR-4 > 100 µM | A549 > 100 µM | OVCAR-3 > 100 µM | OVCAR-8 > 100 µM | SNB-75 2.56 µM | UACC-62 > 100 µM | EKVX 41.4 µM | TK-10 > 100 µM | M19-MEL > 100 µM
> 100 µM: HCT-15
